Where a name gives a salt, the structure may show the parent alone. Read-outs that look alike come from different tables or passages of the source.
What was measured:
Human Jak2 kinase domain = Human Jak2 kinase domain (Homo sapiens (Human), UniProt O60674); assay: Jak2 Inhibition Assay (Omnia kinase assay); type: biochemical; conditions: read-out: Jak2 Enzyme IC50
Protocol: The assays described in Examples C, D, E and F for the determination of JAK1, JAK2, JAK3 and Tyk2 kinase activity, respectively, utilized the Omnia® Kinase fluorescence peptide substrate-based technology (Invitrogen). […] The reactions were therefore read at excitation 360 nm and emission was measured at 485 nm every 50 seconds for 45 minutes using a PerkinElmer EnVision Multilabel Plate Reader.
The final buffer conditions for each of the JAK1, JAK2, JAK3 and Tyk2 assays were as follows: 25 mM HEPES, pH 7.4, 10 mM MgCl2, 0.01% Triton X-100 and 1 mM DTT.
Two-μL aliquots of these were transferred to a fresh plate for a ten-fold intermediate dilution with assay buffer. Five-μL aliquots of the diluted compounds were then transferred to 20-μL of assay mixtures described in Examples C, D, E and F for a final concentration of DMSO of 2%. […] For each plate, percent of control (POC) values were calculated for each well according to the following equation:
[formula] • where • Xmax=Average Uninhibited Controls • Xmin=Average Background IC50's were estimated from the POC's using a standard 4-parameter logistic model:
[formula] • where • A=Minimum Y (Bottom Asymptote) • B=Maximum Y (Top Asymptote) • C=EC50 • D=Slope Factor • X=Compound Concentration (nM) • Y=POC
The IC50 is defined as the concentration of inhibitor at which the POC equals 50 for the fitted curve.
Compounds of Formula I were screened for their ability to inhibit Jak2 using the general enzyme inhibition assay method, in which the assay mixture contained 500 μM ATP, 10 μM Omnia® Y7 peptide (Catalog # IVGN KNZ3071C, Invitrogen Corporation, Carlsbad, Calif.) and 4 nM Jak2 in a total volume of 20 μL. Human Jak2 kinase domain comprising amino acids 808-1132 was purchased from Invitrogen Corporation, Carlsbad, Calif. (catalog # IVGN PV4210).

[1] = biological target: TrkA (histidine-tagged recombinant human TrkA, cytoplasmic domain) (Homo sapiens (Human), UniProt P04629); assay: TrkA ELISA Assay; type: biochemical; conditions: Table 1; ELISA, 500 μM ATP; read-out: TrkA Enzyme IC50
Protocol: An enzyme-linked immunosorbant assay (ELISA) was used to assess TrkA kinase activity in the presence of inhibitors. Immulon 4HBX 384-well microtiter plates (Thermo part #8755) were coated with a 0.025 mg/mL solution of poly (Glu, Ala, Tyr; 6:3:1; Sigma P3899). […] The reaction mixture was removed from the plate by washing with PBS containing 0.1% (v/v) Tween 20. The phosphorylated reaction product was detected using 0.2 μg/mL of a phosphotyrosine specific monoclonal antibody (clone PY20) conjugated to horseradish peroxidase in conjunction with the TMB Peroxidase Substrate System (KPL). After the addition of 1M phosphoric acid, the chromogenic substrate color intensity was quantitated via absorbance at 450 nm.

[2] = Table 1, 500 μM ATP, >1000 nM when >50% inhibition not observed at 1000 nM

Chain of TrkA (histidine-tagged recombinant human TrkA, cytoplasmic domain) (P04629 440-796): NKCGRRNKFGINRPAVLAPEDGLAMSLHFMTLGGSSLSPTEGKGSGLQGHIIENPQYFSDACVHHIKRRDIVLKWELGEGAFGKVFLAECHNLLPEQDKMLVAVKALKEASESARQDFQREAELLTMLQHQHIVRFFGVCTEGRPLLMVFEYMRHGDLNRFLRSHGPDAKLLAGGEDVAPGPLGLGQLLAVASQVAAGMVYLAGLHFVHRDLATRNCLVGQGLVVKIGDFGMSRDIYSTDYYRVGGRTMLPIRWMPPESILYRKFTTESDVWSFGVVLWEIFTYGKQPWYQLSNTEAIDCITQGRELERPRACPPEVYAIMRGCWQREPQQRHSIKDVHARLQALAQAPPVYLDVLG
Chain of Human Jak2 kinase domain (O60674 808-1132): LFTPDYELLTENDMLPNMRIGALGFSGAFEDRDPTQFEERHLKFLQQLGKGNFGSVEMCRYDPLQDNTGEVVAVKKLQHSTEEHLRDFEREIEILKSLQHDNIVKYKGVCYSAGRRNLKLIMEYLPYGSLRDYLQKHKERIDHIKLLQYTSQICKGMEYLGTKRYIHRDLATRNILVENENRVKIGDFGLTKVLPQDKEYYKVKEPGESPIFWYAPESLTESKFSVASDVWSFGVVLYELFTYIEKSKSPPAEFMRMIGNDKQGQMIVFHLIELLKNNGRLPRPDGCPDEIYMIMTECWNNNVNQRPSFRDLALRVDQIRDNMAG

Structure (SMILES)	IC50 (Human Jak2 kinase domain; [2])	IC50 [1]	IC50 (Human Jak2 kinase domain)
O=C(NC1CCOCC1)c1cnn2ccc(N3CCC[C@@H]3c3cc(F)ccc3F)nc12 [Example 20, (R)-5-(2-(2,5-difluorophenyl)pyrrolidin-1-yl)-N-(tetrahydro-2H-pyran-4-yl)pyrazolo[1,5-a]pyrimidine-3-carboxamide]	257 nM	0.6 nM	
Cn1cnc(CNC(=O)c2cnn3ccc(N4CCC[C@@H]4c4cc(F)ccc4F)nc23)c1 [Example 21, (R)-5-(2-(2,5-difluorophenyl)pyrrolidin-1-yl)-N-((1-methyl-1H-imidazol-4-yl)methyl)pyrazole[1,5-a]pyrimidine-3-carboxamide]	> 1000 nM	2.95 nM	
O=C(NCCN1CCNC1=O)c1cnn2ccc(N3CCC[C@@H]3c3cc(F)ccc3F)nc12 [Example 24, (R)-5-(2-(2,5-difluorophenyl)pyrrolidin-1-yl)-N-(2-(2-oxoimidazolidin-1-yl)ethyl) pyrazole[1,5-a]pyrimidine-3-carboxamide]	> 1000 nM	3.6 nM	
O=C(NCCc1c[nH]cn1)c1cnn2ccc(N3CCC[C@@H]3c3cc(F)ccc3F)nc12 [Example 25, (R)—N-(2-(1H-imidazol-4-yl)ethyl)-5-(2-(2,5-difluorophenyl)pyrrolidin-1-yl)pyrazolo[1,5-a]pyrimidine-3-carboxamide]	> 1000 nM	0.4 nM	
O=C(NCCn1ccnc1)c1cnn2ccc(N3CCC[C@@H]3c3cc(F)ccc3F)nc12 [Example 28, (R)—N-(2-(1H-imidazol-1-yl)ethyl)-5-(2-(2,5-difluorophenyl)pyrrolidin-1-yl)pyrazolo[1,5-a]pyrimidine-3-carboxamide]	> 1000 nM	2.8 nM	
CC1(O)CN(C(=O)c2cnn3ccc(N4CCC[C@@H]4c4cc(F)ccc4F)nc23)C1 [Example 32, (R)-(5-(2-(2,5-difluorophenyl)pyrrolidin-1-yl)pyrazolo[1,5-a]pyrimidin-3-yl)(3-hydroxy-3-methylazetidin-1-yl)methanone]	> 1000 nM	5.3 nM	
O=C(N[C@H]1CC[C@H](O)CC1)c1cnn2ccc(N3CCC[C@@H]3c3cccc(F)c3)nc12 [Example 35, 5-((R)-2-(3-fluorophenyl)pyrrolidin-1-yl)-N-((trans)-4-hydroxycyclohexyl)pyrazolo[1,5-a]pyrimidine-3-carboxamide]	278 nM	1.2 nM	
CC(C)(C)NC(=O)c1cnn2ccc(N3CCC[C@@H]3c3cccc(F)c3)nc12 [Example 36, (R)—N-tert-butyl-5-(2-(3-fluorophenyl)pyrrolidin-1-yl)pyrazolo[1,5-a]pyrimidine-3-carboxamide]	> 1000 nM	2.1 nM	
O=C(NC1CC1)c1cnn2ccc(N3CCC[C@@H]3c3cccc(F)c3)nc12 [Example 37, (R)—N-cyclopropyl-5-(2-(3-fluorophenyl)pyrrolidin-1-yl)pyrazolo[1,5-a]pyrimidine-3-carboxamide]	> 1000 nM	1.65 nM	
CC(C)(C#N)NC(=O)c1cnn2ccc(N3CCC[C@@H]3c3cc(F)ccc3F)nc12 [Example 38, (R)—N-(2-cyanopropan-2-yl)-5-(2-(2,5-difluorophenyl)pyrrolidin-1-yl)pyrazolo[1,5-a]pyrimidine-3-carboxamide]		1.3 nM	> 1000 nM
CC(C)(C)NC(=O)c1cnn2ccc(N3C[C@H](O)C[C@@H]3c3cccc(F)c3)nc12 [Example 42, N-tert-butyl-5-((2R,4R)-2-(3-fluorophenyl)-4-hydroxypyrrolidin-1-yl)pyrazolo[1,5-a]pyrimidine-3-carboxamide]	> 1000 nM	48.3 nM	
CNC(=O)c1cnn2ccc(N3C[C@H](O)C[C@@H]3c3cccc(F)c3)nc12 [Example 43, 5-((2R,4R)-2-(3-fluorophenyl)-4-hydroxypyrrolidin-1-yl)-N-methylpyrazolo[1,5-a]pyrimidine-3-carboxamide]	> 1000 nM	139 nM	
CC(C)(C)NC(=O)c1cnn2ccc(N3CCC[C@@H]3c3cncc(F)c3)nc12 [Example 53, (R)—N-tert-butyl-5-(2-(5-fluoropyridin-3-yl)pyrrolidin-1-yl)pyrazolo[1,5-a]pyrimidine-3-carboxamide]	> 1000 nM	10.4 nM	
O=C(N[C@@H]1CCNC[C@@H]1F)c1cnn2ccc(N3CCC[C@@H]3c3cc(F)ccc3F)nc12 [Example 61, 5-((R)-2-(2,5-difluorophenyl)pyrrolidin-1-yl)-N-((3S,4R)-3-fluoropiperidin-4-yl)pyrazolo[1,5-a]pyrimidine-3-carboxamide hydrochloride]		1.95 nM	699 nM

Continued, values first:

IC50 (Human Jak2 kinase domain; [2])	IC50 [1]	IC50 (Human Jak2 kinase domain)	Structure (SMILES)
> 1000 nM	2.1 nM		Cn1cc(CNC(=O)c2cnn3ccc(N4CCC[C@@H]4c4cc(F)ccc4F)nc23)cn1 [Example 22, (R)-5-(2-(2,5-difluorophenyl)pyrrolidin-1-yl)-N-((1-methyl-1H-pyrazol-4-yl)methyl)pyrazolo[1,5-a]pyrimidine-3-carboxamide]
> 1000 nM	1.3 nM		O=C(NC[C@@H](O)CO)c1cnn2ccc(N3CCC[C@@H]3c3cc(F)ccc3F)nc12 [Example 26, 5-((R)-2-(2,5-difluorophenyl)pyrrolidin-1-yl)-N—((R)-2,3-dihydroxypropyl)pyrazolo[1,5-a]pyrimidine-3-carboxamide]
> 1000 nM	214 nM		CN(C)C(=O)c1cnn2ccc(N3CCC[C@@H]3c3cc(F)ccc3F)nc12 [Example 27, (R)-5-(2-(2,5-difluorophenyl)pyrrolidin-1-yl)-N,N-dimethylpyrazolo[1,5-a]pyrimidine-3-carboxamide]
> 1000 nM	1.3 nM		O=C(NC[C@H](O)CO)c1cnn2ccc(N3CCC[C@@H]3c3cc(F)ccc3F)nc12 [Example 29, 5-((R)-2-(2,5-difluorophenyl)pyrrolidin-1-yl)-N—((S)-2,3-dihydroxypropyl)pyrazolo[1,5-a]pyrimidine-3-carboxamide]
> 1000 nM	0.8 nM		CC(C)(CF)NC(=O)c1cnn2ccc(N3CCC[C@@H]3c3cc(F)ccc3F)nc12 [Example 40, (R)-5-(2-(2,5-difluorophenyl)pyrrolidin-1-yl)-N-(1-fluoro-2-methylpropan-2-yl)pyrazolo[1,5-a]pyrimidine-3-carboxamide]
	1.5 nM	> 1000 nM	NS(=O)(=O)CCNC(=O)c1cnn2ccc(N3CCC[C@@H]3c3cc(F)ccc3F)nc12 [Example 47, (R)-5-(2-(2,5-difluorophenyl)pyrrolidin-1-yl)-N-(2-sulfamoylethyl)pyrazolo[1,5-a]pyrimidine-3-carboxamide]
	0.6 nM	429 nM	COc1ccc(F)cc1[C@H]1CCCN1c1ccn2ncc(C(=O)NC3CC3)c2n1 [Example 48, (R)—N-cyclopropyl-5-(2-(5-fluoro-2-methoxyphenyl)pyrrolidin-1-yl)pyrazolo[1,5-a]pyrimidine-3-carboxamide]
	2.25 nM	> 1000 nM	COc1ccc(F)cc1[C@H]1CCCN1c1ccn2ncc(C(=O)NCCN3CCOCC3)c2n1 [Example 54, (R)-5-(2-(5-fluoro-2-methoxyphenyl)pyrrolidin-1-yl)-N-(2-morpholinoethyl)pyrazolo[1,5-a]pyrimidine-3-carboxamide]
	1 nM	> 1000 nM	COc1ccc(F)cc1[C@H]1CCCN1c1ccn2ncc(C(=O)NC[C@H](O)CO)c2n1 [Example 55, N—((S)-2,3-dihydroxypropyl)-5-((R)-2-(5-fluoro-2-methoxyphenyl)pyrrolidin-1-yl)pyrazolo[1,5-a]pyrimidine-3-carboxamide]
	2.4 nM	> 1000 nM	COc1ccc(F)cc1[C@H]1CCCN1c1ccn2ncc(C(=O)NC[C@@H](O)CO)c2n1 [Example 56, N—((R)-2,3-dihydroxypropyl)-5-((R)-2-(5-fluoro-2-methoxyphenyl)pyrrolidin-1-yl)pyrazolo[1,5-a]pyrimidine-3-carboxamide]
> 1000 nM	9.4 nM		CC(C)(N)CNC(=O)c1cnn2ccc(N3CCC[C@@H]3c3cc(F)ccc3F)nc12 [Example 58, (R)—N-(2-amino-2-methylpropyl)-5-(2-(2,5-difluorophenyl)pyrrolidin-1-yl)pyrazolo[1,5-a]pyrimidine-3-carboxamide]
